Each structure is given as a SMILES string.

Two compounds from ChEMBL document CHEMBL4507265 (2021) can be followed below.

The species entered for data set [1] is Rattus norvegicus. Nature of the data set: Testosterone Eurofins-Panlabs radioligand binding assay. Further details: ligand concentration 1.5 nM; call rule not given here. As to conditions: Compound concentration 10.0 uM.
Data set [2] addresses Voltage-dependent N-type calcium channel subunit alpha-1B (Homo sapiens) (UniProt Q00975). The data set is described as follows: Inhibition of Calcium Channel N-Type at 10 µM in the Eurofins-Panlabs radioligand binding assay (Eurofins_assay_216000). The settings on record: Rattus norvegicus; Compound concentration 10.0 uM.
The species entered for data set [3] is Rattus norvegicus. Nature of the data set: Inhibition of Imidazoline I2, Central at 10 µM in the Eurofins-Panlabs radioligand binding assay (Eurofins_assay_241000). Further details: ligand concentration 2 nM. As to conditions: Compound concentration 10.0 uM.
Data set [4] concerns the target GABA-A receptor; anion channel (Rattus norvegicus) (UniProt O09028+P15431+P18506+P18508+P19969+P20236+P23574+P23576+P28471+P28473+P30191+P62813+P63079+P63138+Q91ZM7+Q9ES14). As to conditions: Compound concentration 10.0 uM.
For data set [5], the target named is T1, D(4) dopamine receptor (Homo sapiens) (UniProt P21917).
T1 sequence (whole entry): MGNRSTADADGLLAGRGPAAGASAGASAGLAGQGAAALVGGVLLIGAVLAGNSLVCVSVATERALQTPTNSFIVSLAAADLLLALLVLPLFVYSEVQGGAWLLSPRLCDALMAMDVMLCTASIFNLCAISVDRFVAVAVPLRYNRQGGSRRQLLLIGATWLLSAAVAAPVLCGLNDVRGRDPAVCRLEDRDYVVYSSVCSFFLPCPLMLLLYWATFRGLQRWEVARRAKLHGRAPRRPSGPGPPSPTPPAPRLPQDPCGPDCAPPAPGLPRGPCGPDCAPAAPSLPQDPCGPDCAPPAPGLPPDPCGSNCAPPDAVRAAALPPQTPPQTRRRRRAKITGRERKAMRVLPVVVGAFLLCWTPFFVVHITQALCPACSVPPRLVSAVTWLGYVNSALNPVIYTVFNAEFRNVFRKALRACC
The data set is described as follows: Inhibition of Dopamine D4.2 at 10 µM in the Eurofins-Panlabs radioligand binding assay (Eurofins_assay_219900). Further details: ligand concentration 0.5 nM. The settings on record: Compound concentration 10.0 uM.

Data set [6] concerns the target L-type calcium channel, benzothiazepine site (Cav1.2 alpha-1C) (Homo sapiens, UniProt Q13936). The data set is described as follows: Inhibition of Calcium Channel L-Type, Benzothiazepine at 10 µM in the Eurofins-Panlabs radioligand binding assay (Eurofins_assay_214510). Further details: ligand concentration 2 nM, non-specific ligand with concentration 10 µM Diltiazem, incubation time 3h, incubation temperature 4 °C. As to conditions: male, Wistar, rat, rat whole brain preparation, probe [3H] Diltiazem, 2 nM; compound concentration 10 uM; target entry is the homologue from another species.

The subject of data set [7] is Epidermal growth factor receptor (Homo sapiens), P00533 [UNDEFINED MUTATION]. As to conditions: Compound concentration 1000.0 nM.
Data set [8] is described as follows: GPCRScan assay: inhibition of GABA/PBR. Further details: species or system Rattus norvegicus; radioligand conc. used [nm] 0.3 – 2.0, parental cells brain tissue.

L-type calcium channel, benzothiazepine site (Cav1.2 alpha-1C), sequence (Q13936 whole entry): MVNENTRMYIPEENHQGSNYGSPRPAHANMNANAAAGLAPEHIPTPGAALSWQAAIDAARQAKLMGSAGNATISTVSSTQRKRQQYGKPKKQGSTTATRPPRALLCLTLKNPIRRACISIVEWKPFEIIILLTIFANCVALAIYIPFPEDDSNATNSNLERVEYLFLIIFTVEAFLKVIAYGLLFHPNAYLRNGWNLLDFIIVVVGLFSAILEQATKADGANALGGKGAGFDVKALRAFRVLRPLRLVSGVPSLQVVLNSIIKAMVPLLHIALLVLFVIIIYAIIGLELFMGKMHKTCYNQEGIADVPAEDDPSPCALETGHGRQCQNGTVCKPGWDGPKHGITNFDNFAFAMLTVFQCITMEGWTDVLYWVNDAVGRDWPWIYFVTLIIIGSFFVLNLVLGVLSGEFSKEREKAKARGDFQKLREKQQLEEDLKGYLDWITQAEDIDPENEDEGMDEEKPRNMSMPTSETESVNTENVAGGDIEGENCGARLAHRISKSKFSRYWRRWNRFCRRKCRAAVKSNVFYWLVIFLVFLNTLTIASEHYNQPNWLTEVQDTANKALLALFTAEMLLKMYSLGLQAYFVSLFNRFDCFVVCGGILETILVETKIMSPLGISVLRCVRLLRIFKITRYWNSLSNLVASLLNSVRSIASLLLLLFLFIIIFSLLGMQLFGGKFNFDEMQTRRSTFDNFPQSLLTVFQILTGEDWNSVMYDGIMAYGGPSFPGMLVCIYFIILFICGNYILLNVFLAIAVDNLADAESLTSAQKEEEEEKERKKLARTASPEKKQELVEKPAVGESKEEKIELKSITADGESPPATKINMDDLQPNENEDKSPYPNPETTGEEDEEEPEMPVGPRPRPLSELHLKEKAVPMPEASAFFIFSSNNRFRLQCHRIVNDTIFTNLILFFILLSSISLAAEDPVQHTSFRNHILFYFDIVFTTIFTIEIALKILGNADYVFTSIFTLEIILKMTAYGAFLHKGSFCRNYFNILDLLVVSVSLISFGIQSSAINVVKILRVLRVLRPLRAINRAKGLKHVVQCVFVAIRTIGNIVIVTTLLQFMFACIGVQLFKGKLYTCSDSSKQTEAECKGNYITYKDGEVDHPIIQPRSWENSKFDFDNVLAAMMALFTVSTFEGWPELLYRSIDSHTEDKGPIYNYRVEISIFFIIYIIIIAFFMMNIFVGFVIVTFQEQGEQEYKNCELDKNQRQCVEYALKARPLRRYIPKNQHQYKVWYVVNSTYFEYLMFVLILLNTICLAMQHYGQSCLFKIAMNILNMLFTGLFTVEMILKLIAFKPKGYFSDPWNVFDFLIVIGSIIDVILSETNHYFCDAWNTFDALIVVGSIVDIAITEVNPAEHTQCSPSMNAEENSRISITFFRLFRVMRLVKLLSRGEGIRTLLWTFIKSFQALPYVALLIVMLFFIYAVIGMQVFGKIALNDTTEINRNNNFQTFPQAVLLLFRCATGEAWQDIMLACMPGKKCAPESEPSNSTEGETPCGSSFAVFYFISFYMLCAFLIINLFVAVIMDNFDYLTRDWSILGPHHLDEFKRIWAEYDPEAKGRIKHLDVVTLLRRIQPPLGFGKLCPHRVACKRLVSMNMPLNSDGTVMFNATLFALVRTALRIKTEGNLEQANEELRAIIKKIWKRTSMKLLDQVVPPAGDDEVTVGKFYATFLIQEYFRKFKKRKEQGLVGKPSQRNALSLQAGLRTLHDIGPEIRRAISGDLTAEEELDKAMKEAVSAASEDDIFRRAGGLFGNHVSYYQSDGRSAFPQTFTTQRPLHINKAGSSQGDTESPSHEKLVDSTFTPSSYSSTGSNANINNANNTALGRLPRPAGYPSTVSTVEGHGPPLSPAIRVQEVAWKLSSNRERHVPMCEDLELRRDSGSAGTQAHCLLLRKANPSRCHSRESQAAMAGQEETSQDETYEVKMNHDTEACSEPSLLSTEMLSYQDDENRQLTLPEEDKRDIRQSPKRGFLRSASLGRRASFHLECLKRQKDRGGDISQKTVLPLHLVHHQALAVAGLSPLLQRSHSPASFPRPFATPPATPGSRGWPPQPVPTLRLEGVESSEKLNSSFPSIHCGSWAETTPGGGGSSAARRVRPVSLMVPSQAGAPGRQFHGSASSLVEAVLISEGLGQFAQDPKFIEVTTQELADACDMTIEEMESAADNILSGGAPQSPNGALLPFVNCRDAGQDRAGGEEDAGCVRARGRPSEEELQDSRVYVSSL
Voltage-dependent N-type calcium channel subunit alpha-1B (Homo sapiens), sequence (Q00975 whole entry, looked up): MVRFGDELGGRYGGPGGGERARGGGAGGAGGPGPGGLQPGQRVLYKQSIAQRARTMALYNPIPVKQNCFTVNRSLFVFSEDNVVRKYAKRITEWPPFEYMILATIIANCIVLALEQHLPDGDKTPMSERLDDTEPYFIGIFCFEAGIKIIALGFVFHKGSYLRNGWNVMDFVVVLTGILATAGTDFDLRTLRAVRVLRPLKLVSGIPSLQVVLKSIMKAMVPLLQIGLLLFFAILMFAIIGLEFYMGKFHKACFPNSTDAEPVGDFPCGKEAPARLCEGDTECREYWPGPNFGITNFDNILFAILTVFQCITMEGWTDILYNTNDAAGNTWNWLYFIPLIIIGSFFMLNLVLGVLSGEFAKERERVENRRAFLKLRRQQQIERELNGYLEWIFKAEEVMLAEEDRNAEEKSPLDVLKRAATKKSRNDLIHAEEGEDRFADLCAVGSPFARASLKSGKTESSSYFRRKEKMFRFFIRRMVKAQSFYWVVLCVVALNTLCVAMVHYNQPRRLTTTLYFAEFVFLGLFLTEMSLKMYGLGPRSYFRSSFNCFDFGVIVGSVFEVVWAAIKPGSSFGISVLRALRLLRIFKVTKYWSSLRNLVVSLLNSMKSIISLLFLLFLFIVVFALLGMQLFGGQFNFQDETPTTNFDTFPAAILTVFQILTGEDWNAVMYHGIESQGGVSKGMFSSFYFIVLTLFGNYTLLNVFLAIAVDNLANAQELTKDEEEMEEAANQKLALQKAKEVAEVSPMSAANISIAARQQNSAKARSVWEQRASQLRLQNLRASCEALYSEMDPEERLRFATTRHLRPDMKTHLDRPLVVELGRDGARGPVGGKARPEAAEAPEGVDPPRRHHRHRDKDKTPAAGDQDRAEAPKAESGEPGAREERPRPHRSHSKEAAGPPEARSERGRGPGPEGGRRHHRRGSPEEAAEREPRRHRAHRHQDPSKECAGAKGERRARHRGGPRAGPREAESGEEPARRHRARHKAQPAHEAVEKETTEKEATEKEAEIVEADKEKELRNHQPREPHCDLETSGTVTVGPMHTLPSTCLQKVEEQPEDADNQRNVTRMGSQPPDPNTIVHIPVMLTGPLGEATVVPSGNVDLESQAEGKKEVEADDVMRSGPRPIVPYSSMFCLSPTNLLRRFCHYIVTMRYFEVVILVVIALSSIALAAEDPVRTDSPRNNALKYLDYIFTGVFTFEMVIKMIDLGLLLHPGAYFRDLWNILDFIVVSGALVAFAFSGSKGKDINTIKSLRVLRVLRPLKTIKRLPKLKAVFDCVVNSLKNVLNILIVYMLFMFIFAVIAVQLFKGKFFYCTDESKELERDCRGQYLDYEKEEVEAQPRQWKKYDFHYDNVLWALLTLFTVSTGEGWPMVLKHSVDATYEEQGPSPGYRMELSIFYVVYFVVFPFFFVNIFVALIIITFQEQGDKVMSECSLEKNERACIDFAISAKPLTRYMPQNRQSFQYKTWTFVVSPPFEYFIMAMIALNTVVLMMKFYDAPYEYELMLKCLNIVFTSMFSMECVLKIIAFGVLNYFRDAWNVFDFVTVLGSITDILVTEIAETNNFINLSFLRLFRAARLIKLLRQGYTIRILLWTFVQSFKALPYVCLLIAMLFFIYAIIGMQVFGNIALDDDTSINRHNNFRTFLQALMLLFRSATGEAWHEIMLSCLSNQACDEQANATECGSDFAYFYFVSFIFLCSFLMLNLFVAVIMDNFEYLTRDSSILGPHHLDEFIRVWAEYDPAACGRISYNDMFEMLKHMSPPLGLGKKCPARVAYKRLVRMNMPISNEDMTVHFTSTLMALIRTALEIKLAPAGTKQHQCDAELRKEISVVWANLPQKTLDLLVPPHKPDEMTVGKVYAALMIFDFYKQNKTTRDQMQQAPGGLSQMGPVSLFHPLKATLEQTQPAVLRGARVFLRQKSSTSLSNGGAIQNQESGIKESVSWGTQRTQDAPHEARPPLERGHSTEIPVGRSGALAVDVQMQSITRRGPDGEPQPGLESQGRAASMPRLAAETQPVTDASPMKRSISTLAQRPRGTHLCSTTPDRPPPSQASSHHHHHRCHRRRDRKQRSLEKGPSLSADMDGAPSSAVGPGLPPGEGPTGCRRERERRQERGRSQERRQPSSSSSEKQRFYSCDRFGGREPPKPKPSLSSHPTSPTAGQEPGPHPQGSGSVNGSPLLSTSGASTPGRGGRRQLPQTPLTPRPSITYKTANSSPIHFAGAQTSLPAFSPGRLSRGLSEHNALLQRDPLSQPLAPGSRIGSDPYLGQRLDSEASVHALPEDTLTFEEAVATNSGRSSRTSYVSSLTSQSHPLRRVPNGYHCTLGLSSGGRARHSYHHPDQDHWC

`NS(=O)(=O)c1cc(NC(=O)Cc2ccccc2)ccc1Oc1cccc(Cl)c1` [BAY-1797]: the inhibition in the data set listed under Rattus norvegicus [1] was 17%; in data set [2] it was 6%; in the data set filed under Rattus norvegicus [3] it was 10%; in data set [4] it was 0%; in data set [5], 4%. For the same compound, the inhibition at 3 h, 10 µM in data set [6] is recorded as 17% (not active).

On to `NS(=O)(=O)c1cc(NC(=O)C2(c3ccccc3Cl)CC2)ccc1Oc1cccc(Cl)c1` [BAY-207], for which, in data set [7], the residual activity was 75%. In data set [8], the Ki came out at 250 nM and the pKi is reported as 6.62.
